Type in all cases: functional, cell-based
Assay [1] relates to KETR3. Kind of assay: Cytotoxicity against human Ketr3 cells by MTT assay.
Assay [2] has as its system A2780. Kind of assay: Cytotoxicity against human A2780 cells by MTT assay. On the technique in general: Tetrazolium assays rely on reduction of a dye to a coloured formazan, in cell work by metabolically active cells.
For assay [3], the system named is BGC-823. Kind of assay: Cytotoxicity against human BGC823 cells by MTT assay.
The subject of assay [4] is A549. Kind of assay: Cytotoxicity against human A549 cells by MTT assay.
The subject of assay [5] is HCT-8. Kind of assay: Cytotoxicity against human HCT8 cells by MTT assay.
Assay [6] deals with Bel-7402. Briefly: Cytotoxicity against human Bel7402 cells by MTT assay.
Assay [7] relates to MCF7. Briefly: Cytotoxicity against human MCF7 cells by MTT assay.
In assay [8] the test system is AGS. Kind of assay: Cytotoxicity against human AGS cells.
Assay [9] deals with MCF7. Kind of assay: Cytotoxicity against human MCF7 cells.
Assay [10] has as its system Bel-7402. Briefly: Cytotoxicity against human Bel7402 cells.

One may read the IC50 as the concentration at which inhibition is half-maximal. Higher therefore signals weaker potency in that assay. As to `C[C@@H](CO)CCC(=O)[C@@H](C)C1C[C@H](O[C@H]2O[C@H](CO)[C@@H](O)[C@H](O)[C@H]2O[C@@H]2O[C@@H](C)[C@H](O)[C@@H](O)[C@H]2O)[C@H]2[C@@H]3CC[C@H]4C[C@@H](O)CC[C@]4(C)[C@H]3CC[C@]12C` (stereo partly specified), the IC50 in assay [1], in [2], in assay [3], in assay [4], in [5] and in assay [6] was above 10 µM throughout. In assay [7], this compound displayed an IC50 above 10 µM.
With `C[C@@H](CO)CCC(=O)[C@@H](C)C1C[C@H](O[C@@H]2O[C@H](CO)[C@@H](O)[C@H](O)[C@H]2O[C@@H]2O[C@@H](C)[C@H](O)[C@@H](O)[C@H]2O)[C@H]2[C@@H]3CC[C@H]4C[C@@H](O)CC[C@]4(C)[C@H]3CC[C@]12C` (stereo partly specified), the IC50 in assay [1], in assay [2], in assay [3], in assay [4], in [5] and in assay [6] was above 10 µM throughout. Also, the IC50 in assay [7] was above 10 µM.
For the compound `C[C@@H](CO)CCC(=O)[C@@H](C)C1C[C@@H](O[C@@H]2O[C@H](CO)[C@@H](O)[C@H](O)[C@H]2O[C@@H]2O[C@@H](C)[C@H](O)[C@@H](O)[C@H]2O)[C@H]2[C@@H]3CC[C@H]4C[C@@H](O)CC[C@]4(C)[C@H]3CC[C@]12C` (stereo partly specified), the half-maximal inhibitory concentration (IC50) in [1], in assay [2], in [3], in assay [4], in [5] and in assay [6] was above 10 µM each time. In assay [7], this compound returned an IC50 above 10 µM.
Regarding `C[C@@H](CO)CCC(=O)[C@@H](C)C1C[C@@H](O[C@H]2O[C@H](CO)[C@@H](O)[C@H](O)[C@H]2O[C@@H]2O[C@@H](C)[C@H](O)[C@@H](O)[C@H]2O)[C@H]2[C@@H]3CC[C@H]4C[C@@H](O)CC[C@]4(C)[C@H]3CC[C@]12C` (stereo partly specified), the IC50 in [1], in [2], in [3], in assay [4], in assay [5] and in [6] was above 10 µM throughout. The compound further registered an IC50 in [7] above 10 µM.
As for `COc1ccc(C(=O)O[C@H]2[C@H](O[C@@H]3[C@@H](OC(C)=O)[C@H](O[C@H]4CC([C@H](C)C(=O)CC[C@@H](C)CO)[C@@]5(C)CC[C@H]6[C@@H](CC[C@H]7C[C@@H](O)CC[C@@]76C)[C@H]45)OC[C@@H]3O)OC[C@@H](O)[C@@H]2O)cc1` (stereo partly specified), the IC50 in [1], in [2], in assay [3], in assay [4], in assay [5] and in assay [6] was above 10 µM in each case. Besides, the IC50 in [7] was above 10 µM.
As to `COc1ccc(C(=O)O[C@H]2[C@H](O[C@H]3CO[C@@H](O[C@@H]4CC([C@H](C)C(=O)CC[C@@H](C)CO)[C@@]5(C)CC[C@H]6[C@@H](CC[C@H]7C[C@@H](O)CC[C@@]76C)[C@H]45)[C@H](OC(C)=O)[C@H]3O)OC[C@@H](O)[C@@H]2O)cc1` (stereo partly specified), the IC50 in assay [1], in assay [2], in assay [3], in assay [4], in assay [5] and in assay [6] was above 10 µM throughout. The compound further had an IC50 in [7] above 10 µM.
`COc1ccc(C(=O)O[C@H]2[C@H](O[C@@H]3[C@@H](OC(C)=O)[C@H](O[C@H]4C[C@H]5[C@@H]6CCC7C[C@@H](O)CC[C@]7(C)[C@H]6CC[C@]5(C)[C@@]4(O)[C@H](C)C(=O)CCC(C)C)OC[C@@H]3O)OC[C@@H](O)[C@@H]2O)cc1` (stereo partly specified): the IC50 in assay [8] came out at 0.71 µM; in assay [9], 0.029 µM; in assay [10], 0.025 µM.
On to `COc1ccc(C(=O)O[C@H]2[C@H](O[C@@H]3[C@@H](OC(C)=O)[C@H](O[C@@H]4CC([C@H](C)C(=O)CC[C@@H](C)CO)[C@@]5(C)CC[C@H]6[C@@H](CC[C@H]7C[C@@H](O)CC[C@@]76C)[C@H]45)OC[C@@H]3O)OC[C@@H](O)[C@@H]2O)cc1` (stereo partly specified), for which the IC50 in assay [1] was determined as 0.1 µM; in assay [2], 0.545 µM; in [3], 0.283 µM; in [4], 0.843 µM; in assay [5] it was 0.1 µM; in assay [6] it was 0.522 µM. Besides, in assay [7], the IC50 was 0.499 µM.
`COc1ccc(C(=O)O[C@H]2[C@H](O[C@H]3CO[C@@H](O[C@H]4CC([C@H](C)C(=O)CC[C@@H](C)CO)[C@@]5(C)CC[C@H]6[C@@H](CC[C@H]7C[C@@H](O)CC[C@@]76C)[C@H]45)[C@H](OC(C)=O)[C@H]3O)OC[C@@H](O)[C@@H]2O)cc1` (stereo partly specified): the IC50 in assay [1], in [2], in assay [3], in assay [4], in assay [5] and in assay [6] was above 10 µM each time. This compound also displayed an IC50 in [7] above 10 µM.
For the compound `C[C@@H]1CC[C@@]2(OC1)O[C@H]1C[C@H]3[C@@H]4CC=C5C[C@@H](O[C@@H]6O[C@H](CO)[C@@H](O[C@@H]7O[C@@H](C)[C@H](O)[C@@H](O)[C@H]7O)[C@H](O)[C@H]6O[C@@H]6O[C@@H](C)[C@H](O)[C@@H](O)[C@H]6O)CC[C@]5(C)[C@H]4CC[C@]3(C)[C@H]1[C@@H]2C` [DIOSCIN], the IC50 in assay [1] came to 0.447 µM; in assay [2], 0.581 µM; in assay [3], 0.268 µM; in assay [4], 0.454 µM; in [5], 0.351 µM; in assay [6], 0.93 µM. In [7], this compound gave an IC50 of 0.879 µM.

Source of the values: ChEMBL document CHEMBL1770145, “Synthesis of 5(6)-dihydro-OSW-1 analogs bearing three kinds of disaccharides linking at 15-hydroxy and their antitumor activities” (Bioorg Med Chem Lett, 2011).
